± gives the standard deviation of the averaged measurements.
Tests used:
[1] = compound: CCN(CC)CCCCNc1ncc2cc(-c3cc(OC)cc(OC)c3)c(NC(=O)NC(C)(C)C)nc2n1; experiment: surviving fraction relative to DMSO-only wells; higher = less growth inhibition; details: exposure time: 5 days
How it was run: (§1)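 Surviving fraction was calculated by normalising CellTiter-Glo luminescence to the median of DMSO-only wells. Tumour cell lines in log phase were seeded in 384-well plates at 250–500 cells per well, and 24 hours later were exposed continuously for five days to inhibitors at 0.5, 1, 5, 10, 50, 100, 500 and 1000 nM.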

[2] = compound: COc1cccc2c1C(=O)c1c(O)c3c(c(O)c1C2=O)C[C@@](O)(C(=O)CO)C[C@@H]3O[C@H]1C[C@H](N)[C@H](O)[C@H](C)O1 [DOXORUBICIN]; experiment: as above; details: exposure time: 5 days
How it was run: as §1

| Test System | surviving fraction ([1]; 0.5 nM) | surviving fraction ([1]; 1 nM) | surviving fraction ([1]; 5 nM) | surviving fraction ([1]; 10 nM) | surviving fraction ([1]; 50 nM) | surviving fraction ([1]; 100 nM) | surviving fraction ([1]; 500 nM) | surviving fraction ([1]; 1000 nM) | surviving fraction ([2]; 0.5 nM) | surviving fraction ([2]; 1 nM) | surviving fraction ([2]; 5 nM) | surviving fraction ([2]; 10 nM) | surviving fraction ([2]; 50 nM) | surviving fraction ([2]; 100 nM) | surviving fraction ([2]; 500 nM) | surviving fraction ([2]; 1000 nM) |
| --- | --- | --- | --- | --- | --- | --- | --- | --- | --- | --- | --- | --- | --- | --- | --- | --- |
| 22RV1 PROSTATE | 1 ± 0.029 | 1.02 ± 0.048 | 0.964 ± 0.011 | 1.01 ± 0.013 | 0.997 ± 0.034 | 1.02 ± 0.044 | 1.04 ± 0.04 | 1.05 ± 0.036 | 1.02 ± 0.018 | 0.917 ± 0.047 | 0.618 ± 0.055 | 0.416 ± 0.047 | 0.222 ± 0.03 | 0.119 ± 0.026 | 0.024 ± 0.001 | 0.0357 ± 0.0025 |
| 93VU HEADNECK | 0.952 ± 0.063 | 0.975 ± 0.062 | 1.02 ± 0.1 | 1.03 ± 0.11 | 1.03 ± 0.095 | 0.884 ± 0.18 | 1.01 ± 0.085 | 0.949 ± 0.076 | 1.03 ± 0.063 | 1.08 ± 0.11 | 1.12 ± 0.085 | 1.09 ± 0.06 | 0.697 ± 0.049 | 0.525 ± 0.046 | 0.249 ± 0.034 | 0.109 ± 0.016 |
| 143B BONE | 0.941 ± 0.078 | 0.997 ± 0.026 | 0.954 ± 0.068 | 1.02 ± 0.032 | 1.01 ± 0.016 | 1.01 ± 0.061 | 0.97 ± 0.054 | 0.995 ± 0.038 | 1 ± 0.018 | 1.02 ± 0.0085 | 0.957 ± 0.0099 | 0.827 ± 0.013 | 0.417 ± 0.027 | 0.2785 ± 0.00071 | 0.0605 ± 0.0035 | 1.008 ± 0.0092 |
| A549 LUNG | 0.975 ± 0.015 | 0.97 ± 0.049 | 0.949 ± 0.036 | 0.952 ± 0.042 | 0.963 ± 0.01 | 1.032 ± 0.0046 | 1.006 ± 0.0065 | 1.05 ± 0.061 | 0.96 ± 0.032 | 0.964 ± 0.039 | 0.963 ± 0.046 | 1.01 ± 0.032 | 0.565 ± 0.031 | 0.496 ± 0.017 | 0.189 ± 0.015 | 0.083 ± 0.001 |
| ASKA SYNOVIAL | 1.04 ± 0.044 | 1.14 ± 0.029 | 1.19 ± 0.046 | 1.09 ± 0.091 | 1.14 ± 0.046 | 1.18 ± 0.065 | 1.09 ± 0.086 | 0.992 ± 0.013 | 0.792 ± 0.014 | 0.5807 ± 0.0031 | 0.28 ± 0.0042 | 0.292 ± 0.007 | 0.204 ± 0.016 | 0.166 ± 0.0025 | 0.16 ± 0.0079 | 0.224 ± 0.0035 |
| BT20 BREAST | 1.17 ± 0.13 | 1.17 ± 0.065 | 1.09 ± 0.26 | 1.17 ± 0.09 | 1.17 ± 0.12 | 1.12 ± 0.029 | 1.53 ± 0.17 | 1.64 ± 0.057 | 1.1 ± 0.033 | 1.02 ± 0.11 | 0.823 ± 0.034 | 0.469 ± 0.07 | 0.187 ± 0.019 | 0.191 ± 0.025 | 0.042 ± 0.01 | 0.037 ± 0.0056 |
| BT549 BREAST | 1.16 ± 0.13 | 1.16 ± 0.11 | 1.15 ± 0.11 | 1.19 ± 0.077 | 1.18 ± 0.17 | 1.04 ± 0.096 | 0.932 ± 0.059 | 0.843 ± 0.068 | 1.07 ± 0.1 | 1.03 ± 0.23 | 0.896 ± 0.087 | 0.378 ± 0.095 | 0.229 ± 0.022 | 0.0903 ± 0.019 | 0.0257 ± 0.0057 | 0.0267 ± 0.0015 |
| C33A CERVIX | 0.832 ± 0.044 | 0.831 ± 0.077 | 0.921 ± 0.068 | 0.914 ± 0.1 | 0.968 ± 0.1 | 0.871 ± 0.12 | 0.828 ± 0.073 | 0.814 ± 0.065 | 0.842 ± 0.066 | 0.988 ± 0.068 | 0.779 ± 0.055 | 0.604 ± 0.045 | 0.122 ± 0.013 | 0.085 ± 0.0096 | 0.0347 ± 0.0086 | 0.04 ± 0.0079 |
| CADOES1 SOFT TISSUE | 0.942 ± 0.1 | 0.905 ± 0.1 | 0.935 ± 0.21 | 0.913 ± 0.071 | 0.895 ± 0.076 | 0.9 ± 0.036 | 0.901 ± 0.056 | 1.05 ± 0.043 | 0.93 ± 0.061 | 0.795 ± 0.037 | 0.926 ± 0.078 | 0.812 ± 0.12 | 0.573 ± 0.052 | 0.323 ± 0.035 | 0.093 ± 0.0087 | 0.0643 ± 0.011 |
| CAL51 BREAST | 0.92 ± 0.063 | 0.943 ± 0.013 | 0.964 ± 0.061 | 0.961 ± 0.042 | 0.858 ± 0.035 | 0.83 ± 0.03 | 0.673 ± 0.019 | 0.6517 ± 0.0035 | 0.903 ± 0.044 | 0.919 ± 0.026 | 0.872 ± 0.029 | 0.62 ± 0.055 | 0.112 ± 0.011 | 0.0608 ± 0.0036 | 0.0247 ± 0.00076 | 0.0238 ± 0.0015 |

— the supplement of paper PMC6045584
